Results on two molecules are retold here after PMC2759274 (Molecular microbiology, 2009).

One data set concerns the target PsrA (His6-PsrA) (Pseudomonas aeruginosa, UniProt Q9HZJ9). Description: EMSA, inhibition of PsrA binding to promoter DNA. To be noted: 100 ng PpsrA, PrpoS or PexsC DNA; 0.01% Brij-58; inhibition seen from 5 µM. (Mobility shift assays separate free from complexed probe on a gel.)
The data set “crystal structure” deals with the molecule itself. Description: crystal structure.

With `CCCCCCCC/C=C\CCCCCCCC(=O)O` [oleate], the “complete inhibition of DNA binding” value at PsrA (His6-PsrA) came out at 50 µM.

B1: PsrA (PA3006) of Pseudomonas aeruginosa (natural protein)
chain: MAQSETVERILDAAEQLFAEKGFAETSLRLITSKAGVNLAAVNYHFGSKKALIQAVFSRFLGPFCASLEKELDRRQAKPEAQHATLEDLLHLLVSQAMAVKPRSGNDLSIFMRLLGLAFSQSQGHLRKYLEEVYGKVFRRYMLLVNEAAPKLPPIELFWRVHFMLGAAAFSMSGIKALRAMAETDFGVNTSTEQVMHLMVPFFAAGMRAESGIDDPLLAGAQLRPRNKTPAKA
modifications: selenomethionine in place of methionine
As for B1, in “crystal structure”, the binding result is “binds”.
